Source: patent US8778966B2, “Quinolinone derivatives as PARP and tank inhibitors” (Janssen Pharmaceutica, NV, priority 2007, dated 2014)

Target: T1, TANK-2 enzyme (Homo sapiens, UniProt Q9H2K2)
T1 construct: made in house
T1 sequence (Q9H2K2 1-1166): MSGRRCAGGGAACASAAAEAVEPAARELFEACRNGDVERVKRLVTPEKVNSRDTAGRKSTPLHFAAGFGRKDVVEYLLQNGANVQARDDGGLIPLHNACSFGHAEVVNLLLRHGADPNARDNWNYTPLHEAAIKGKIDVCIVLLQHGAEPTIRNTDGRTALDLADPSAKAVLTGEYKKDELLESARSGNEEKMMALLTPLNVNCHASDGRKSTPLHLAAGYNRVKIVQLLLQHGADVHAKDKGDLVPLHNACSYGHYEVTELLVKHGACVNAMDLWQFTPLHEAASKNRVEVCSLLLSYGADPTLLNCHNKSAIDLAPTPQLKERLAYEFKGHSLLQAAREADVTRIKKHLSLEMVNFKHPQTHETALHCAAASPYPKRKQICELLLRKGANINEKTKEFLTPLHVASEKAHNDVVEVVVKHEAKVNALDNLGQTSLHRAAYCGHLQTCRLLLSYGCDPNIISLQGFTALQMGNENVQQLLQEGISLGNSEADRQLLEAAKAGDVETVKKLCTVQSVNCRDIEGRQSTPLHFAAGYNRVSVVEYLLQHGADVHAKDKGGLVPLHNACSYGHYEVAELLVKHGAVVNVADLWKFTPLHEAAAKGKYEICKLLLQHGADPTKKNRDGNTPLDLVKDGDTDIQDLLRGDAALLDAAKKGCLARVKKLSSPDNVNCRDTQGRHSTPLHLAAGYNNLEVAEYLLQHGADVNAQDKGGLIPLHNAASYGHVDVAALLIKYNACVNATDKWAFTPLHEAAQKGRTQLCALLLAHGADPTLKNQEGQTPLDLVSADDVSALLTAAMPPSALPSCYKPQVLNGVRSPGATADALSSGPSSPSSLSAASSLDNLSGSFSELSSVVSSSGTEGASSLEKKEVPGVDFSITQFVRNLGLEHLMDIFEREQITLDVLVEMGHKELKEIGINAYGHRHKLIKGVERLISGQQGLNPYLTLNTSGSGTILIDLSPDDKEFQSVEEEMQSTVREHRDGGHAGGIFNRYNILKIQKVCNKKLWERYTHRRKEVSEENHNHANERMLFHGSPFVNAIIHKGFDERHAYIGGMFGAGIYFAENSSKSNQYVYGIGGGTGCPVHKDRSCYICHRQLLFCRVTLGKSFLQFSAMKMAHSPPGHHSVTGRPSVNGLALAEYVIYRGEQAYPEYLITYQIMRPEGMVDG
Experiment: In vitro Scintillation Proximity Assay (SPA) for TANK-2 inhibitory activity
Type: biochemical
Settings: read-out: in vitro SPA assay TANK-2 pIC50 (converted)
Method: Compounds of the present invention were tested in an in vitro assay based on SPA technology with Ni Flash plates (96 or 384 well). In principle, the assay relies upon SPA technology for the detection of auto-poly(ADP-ribosyl)ation of TANK-2 protein using [^3H]-nicotinamide adenine dinucleotide ([^3H]-NAD^+) as ADP-ribosyl donor.
A stock solution of 100 nM [3H]-NAD^+/NAD (0.1 mCi/ml, supplier: Perkin Elmer) and 0.25 μM NAD (Sigma) was made in assay buffer (60 mM Tris/HCl, pH 7.4; 0.9 mM DTT; 6 mM MgCl2). The TANK-2 enzyme was produced as described in EP1238063. 60 μl of assay buffer, together with 1 μl of compound in DMSO, 20 μl of [^3H]-NAD^+/NAD and 20 μl of TANK-2 enzyme (final concentration 8 μg/ml) was added per well into a 96-well Ni-coated flash plate (Perkin Elmer). After incubation of the mixture for 120 min. at room temperature, the reaction was terminated by adding 60 μl of stopsolution (42.6 mg NAD in 6 ml H2O). The plates were covered with a plate sealer and placed in a TopCountNXT™ (Packard) for scintillation counting. Values were expressed as counts per minute (cpm). For each experiment, controls (containing TANK-2 enzyme and DMSO without compound), a blank incubation (containing DMSO but no TANK-2 enzyme or compound) and samples (containing TANK-2 enzyme and compound dissolved in DMSO) were run in parallel. All compounds tested were dissolved and eventually further diluted in DMSO. In first instance, compounds were tested at a concentration of 10^−5M. […] In each test, the blank value was subtracted from both the control and the sample values. The control sample represented maximal TANK-2 enzyme activity. For each sample, the amount of cpm was expressed as a percentage of the mean cpm value of the controls. When appropriate, IC50-values (concentration of the drug, needed to reduce the TANK-2 enzyme activity to 50% of the control) were computed using linear interpolation between the experimental points just above and below the 50% level. Herein the effects of test compounds are expressed as pIC50 (the negative log value of the IC50-value). As reference compounds, 3-aminobenzamide and 4-amino-1,8-naphtalimide were included to validate the SPA assay. Herein the assay was described using 96-well plates. In the assay using 384-well plates the same final concentrations were used and volumes were adapted.

CCc1cc2ccc(C(C)(C#N)Cc3cccc(C)c3F)cc2[nH]c1=O (centres unmarked) [Compound 132]
IC50: 63.1 nM

CCc1cc2ccc(C(C)(C#N)Cc3cccc(F)c3F)cc2[nH]c1=O (centres unmarked) [Compound 120]
IC50: 50.1 nM

CCc1cc2ccc(C(C)(C#N)CCOc3ccc(F)cc3)cc2[nH]c1=O (centres unmarked) [Compound 144]
IC50: 100 nM

CCc1cc2ccc(C(C#N)(CCOc3ccccc3)C3CC3)cc2[nH]c1=O (centres unmarked) [Compound 166]
IC50: 126 nM

CCc1cc2ccc(C(C)(C#N)Cc3c(F)c(F)c(F)c(F)c3F)cc2[nH]c1=O (centres unmarked) [Compound 116]
IC50: 79.4 nM

CCc1cc2ccc(C(C#N)(CC)C3CCc4ccc(F)cc43)cc2[nH]c1=O (centres unmarked) [Compound 391]
IC50: 631 nM

C#Cc1cccc(CC(C)(C#N)c2ccc3cc(CC)c(=O)[nH]c3c2)c1 (racemic) [Compound 168]
IC50: 79.4 nM

CCc1cc2ccc(C(C)(C#N)Cc3cc(Br)cc(Br)c3)cc2[nH]c1=O (centres unmarked) [Compound 133]
IC50: 200 nM

CCc1cc2ccc(C(C)(C#N)Cc3cc(C(F)(F)F)cc(C(F)(F)F)c3)cc2[nH]c1=O (centres unmarked) [Compound 131]
IC50: 1000 nM

CCc1cc2ccc(C(C)(C#N)CCOc3ccc(OC)cc3)cc2[nH]c1=O (centres unmarked) [Compound 147]
IC50: 79.4 nM

CCc1cc2ccc(C(C)(C#N)Cc3c(Cl)cccc3Cl)cc2[nH]c1=O (centres unmarked) [Compound 135]
IC50: 50.1 nM

CCc1cc2ccc(C(C)(C#N)Cc3cccc(Cl)c3)cc2[nH]c1=O (centres unmarked) [Compound 140]
IC50: 126 nM

CCc1cc2ccc(C(C)(C#N)Cc3cc(F)cc(C(F)(F)F)c3)cc2[nH]c1=O (centres unmarked) [Compound 127]
IC50: 398 nM

CCc1cc2ccc(C(C)(C#N)Cc3cccc(OC(F)(F)F)c3)cc2[nH]c1=O (centres unmarked) [Compound 110]
IC50: 126 nM

CCc1cc2ccc(C(C)(C#N)CC#Cc3cccc(F)c3)cc2[nH]c1=O (centres unmarked) [Compound 184]
IC50: 2510 nM

CCc1cc2ccc(C(C)(C#N)Cc3ccccc3Br)cc2[nH]c1=O (centres unmarked) [Compound 104]
IC50: 63.1 nM

CCc1cc2ccc(C(C)(C#N)Cc3cc(Cl)cc(Cl)c3)cc2[nH]c1=O (centres unmarked) [Compound 141]
IC50: 126 nM

CCc1cc2ccc(C(C)(C#N)Cc3ccc(F)cc3Br)cc2[nH]c1=O (centres unmarked) [Compound 139]
IC50: 79.4 nM

CCc1cc2ccc(C(C)(C#N)CCOc3cccc4ccccc34)cc2[nH]c1=O (centres unmarked) [Compound 158]
IC50: 501 nM

CCc1cc2ccc(C(C)(C#N)CC3CN(C)c4ccccc4O3)cc2[nH]c1=O (centres unmarked) [Compound 156]
IC50: 398 nM

CCc1cc2ccc(C(C)(C#N)Cc3ccc4ccccc4c3)cc2[nH]c1=O (centres unmarked) [Compound 122]
IC50: 100 nM

CCc1cc2ccc(C(C)(C#N)Cc3ccccc3C)cc2[nH]c1=O (centres unmarked) [Compound 105]
IC50: 20 nM

CCc1cc2ccc(C(C)(C#N)Cc3cccc(C)c3)cc2[nH]c1=O (centres unmarked) [Compound 107]
IC50: 31.6 nM

CCc1cc2ccc(C(C)(C#N)CCOc3ccc(C(C)(C)C)cc3)cc2[nH]c1=O (centres unmarked) [Compound 167]
IC50: 794 nM

CCc1cc2ccc(C(C)(C#N)Cc3cccc(S(C)(=O)=O)c3)cc2[nH]c1=O (centres unmarked) [Compound 129]
IC50: 126 nM

CCc1cc2ccc(C(C)(C#N)Cc3ccc(Br)cc3)cc2[nH]c1=O (centres unmarked) [Compound 118]
IC50: 31.6 nM

CCc1cc2ccc(C(C)(C#N)CCOc3ccc(Br)cc3)cc2[nH]c1=O (centres unmarked) [Compound 160]
IC50: 316 nM

CCc1cc2ccc(C(C)(C#N)Cc3cc(C)cc(C)c3)cc2[nH]c1=O (centres unmarked) [Compound 125]
IC50: 100 nM

CCc1cc2ccc(C(C)(C#N)CCOc3ccc4ccccc4c3)cc2[nH]c1=O (centres unmarked) [Compound 157]
IC50: 316 nM

CCc1cc2ccc(C(C)(C#N)Cc3ccc(C#N)cc3)cc2[nH]c1=O (centres unmarked) [Compound 111]
IC50: 31.6 nM

Cc1cc2ccc([C@@](C)(C#N)[C@H]3CCc4cc(C#N)ccc43)cc2[nH]c1=O [Compound 389]
IC50: 3160 nM

CCc1cc2ccc(C(C)(C#N)Cc3cccc(C(F)(F)F)c3F)cc2[nH]c1=O (centres unmarked) [Compound 134]
IC50: 126 nM

Cc1cc2ccc([C@@](C)(C#N)CCOc3ccccc3)cc2[nH]c1=O (single isomer, unassigned) [Compound 164]
IC50: 631 nM

CCc1cc2ccc(C(C)(C#N)Cc3ccc(OC)cc3)cc2[nH]c1=O (centres unmarked) [Compound 119]
IC50: 31.6 nM

CCc1cc2ccc(C(C)(C#N)CCOc3ccc(Cl)cc3)cc2[nH]c1=O (centres unmarked) [Compound 146]
IC50: 158 nM

CCc1cc2ccc(C(C#N)(CC)CCOc3ccc(C#N)cc3)cc2[nH]c1=O (centres unmarked) [Compound 271]
IC50: 501 nM

CCc1cc2ccc(C(C)(C#N)CCOc3ccc4oc(C)c(C)c4c3)cc2[nH]c1=O (centres unmarked) [Compound 162]
IC50: 158 nM

CCc1cc2ccc(C(C)(C#N)CCOc3ccccc3C(C)=O)cc2[nH]c1=O (centres unmarked) [Compound 159]
IC50: 251 nM

CCc1cc2ccc(C(C)(C#N)Cc3ccc4c(c3)nnn4C)cc2[nH]c1=O (centres unmarked) [Compound 123]
IC50: 100 nM

CCc1cc2ccc(C(C)(C#N)Cc3ccc(C(F)(F)F)cc3)cc2[nH]c1=O (centres unmarked) [Compound 108]
IC50: 126 nM

Cc1cc2ccc([C@@](C)(C#N)[C@@H]3CCc4cc(C#N)ccc43)cc2[nH]c1=O [Compound 245]
IC50: 1000 nM

CCc1cc2ccc(C(C)(C#N)Cc3c(Cl)cccc3Br)cc2[nH]c1=O (centres unmarked) [Compound 136]
IC50: 50.1 nM

CCc1cc2ccc(C(C)(C#N)Cc3cccc(CCC#N)c3)cc2[nH]c1=O (centres unmarked) [Compound 165]
IC50: 79.4 nM

CCOc1ccccc1OCCC(C)(C#N)c1ccc2cc(CC)c(=O)[nH]c2c1 (centres unmarked) [Compound 142]
IC50: 158 nM

CCc1cc2ccc(C(C)(C#N)Cc3ccc(OC(F)(F)F)cc3)cc2[nH]c1=O (centres unmarked) [Compound 114]
IC50: 501 nM

CCc1cc2ccc(C(C)(C#N)Cc3ccc4c(c3)OCCO4)cc2[nH]c1=O (centres unmarked) [Compound 124]
IC50: 100 nM

CCc1cc2ccc(C(C)(C#N)CCOc3ccc(SC)cc3)cc2[nH]c1=O (centres unmarked) [Compound 155]
IC50: 126 nM

CCc1cc2ccc(C(C)(C#N)CCOc3ccc(Cl)cc3Cl)cc2[nH]c1=O (centres unmarked) [Compound 154]
IC50: 200 nM

CCc1cc2ccc(C(C)(C#N)Cc3cccc(Cl)c3Cl)cc2[nH]c1=O (centres unmarked) [Compound 121]
IC50: 79.4 nM

CCc1cc2ccc(C(C)(C#N)CCOc3ccccc3)cc2[nH]c1=O (centres unmarked) [Compound 145]
IC50: 50.1 nM
